Results from US20040191312A1, “5-HT3 receptor agonists as neuroprotectors” (priority 2002, published 2004).

Experiments:
[1] = tested on: primary neuron cultures (OGD-induced cell death); experiment: LOPAC library screen using the oxygen-glucose deprivation (OGD) assay, ATP content as index of cell viability; settings: for activity at 10 µM: Rattus norvegicus, Primary neuron, read-out: Activity (% Cells Alive)
Method: Primary neuron cultures were prepared as follows: Brain cortices from E18 rat brains were dissected in DPBS without calcium and magnesium. They were digested at 37° C. for 30 min with trypsin. The digestion was stopped by addition of MEM, 10% Fetal Bovine Serum (FBS)and 10% Horse Serum. DNase (10 U/ml) was also added. The tissues were mechanically triturated using a pipette. This step was repeated until all cells were dissociated and then they were filtered through a 70 um Nitrex mesh. The cells were counted and plated in poly ornithine-coated 96-well culture plates at 5×10^5 cells/well in MEM containing 10% HS and 10% FBS. Three days later, the medium was changed to neurobasal-serum free containing B27 and SATO (Sodium selenite 4 μg/ml, transferrrin 100 μg/ml, BSA 100 μg/ml, progesterone 62 μg/ml, putrescine 160 μg/ml). 5-Fluoro-2′deoxyuridine (FdU 30 μM) was added to inhibit the dividing microglia from the cultures. The culture medium was changed every 3 days leaving half volume of the old (conditioned) media and adding half volume of fresh media. All experiments were performed in 11-12 days-old neuronal cultures. The cells were maintained at 37° C. in a 5% CO2 humidified incubator.
The compounds from the LOPAC library, obtained from Sigma, were plated in 96-wells at 200 μM (20× the final concentration).
The neuronal cultures were pre-incubated with the compounds (10 μM final concentration) for 2 hours. The cells were then subjected to oxygen glucose deprivation (OGD) for 120 min at 37° C. in presence of the compounds of the library. Cultures were placed in an anaerobic chamber (Forma Scientific) and washed two times with balanced salt solution (116 mM NaCl, 5.4 mM KCl, 1 mM NaH2PO4, 1.8 mm CaCl2, 26.2 mM NaHCO3, 0.01 mM glycine, pH=7.4) lacking glucose and aerated with an anaerobic gas mix (85% N2/5% CO2/10% H2) to remove residual oxygen. Control cultures were kept in the original neurobasal media but were submitted to the anaerobic conditions. MK-801 (10 μM), a non competitive NMDA receptor antagonist was used to prevent cell death after OGD caused by activation of the NMDA receptors. To terminate the oxygen glucose deprivation, the cells were removed from the anaerobic chamber and the OGD media was removed and replaced with neurobasal media. The compounds were added back for an additional 20 hours.
Cells were lysed and ATP content was measured as an index for cell viability using a commercially available reagent (Cell Titter Glo from Promega). This assay generates a luminescent signal produced by the luciferase reaction.

5-HT3 receptor = target: T1, 5-HT3 receptor (Homo sapiens, UniProt P46098); settings: known 5-HT3 agonists; van Hooft et al. 1997, Morain et al. 1994; cited from earlier work
T1 sequence (P46098 24-478): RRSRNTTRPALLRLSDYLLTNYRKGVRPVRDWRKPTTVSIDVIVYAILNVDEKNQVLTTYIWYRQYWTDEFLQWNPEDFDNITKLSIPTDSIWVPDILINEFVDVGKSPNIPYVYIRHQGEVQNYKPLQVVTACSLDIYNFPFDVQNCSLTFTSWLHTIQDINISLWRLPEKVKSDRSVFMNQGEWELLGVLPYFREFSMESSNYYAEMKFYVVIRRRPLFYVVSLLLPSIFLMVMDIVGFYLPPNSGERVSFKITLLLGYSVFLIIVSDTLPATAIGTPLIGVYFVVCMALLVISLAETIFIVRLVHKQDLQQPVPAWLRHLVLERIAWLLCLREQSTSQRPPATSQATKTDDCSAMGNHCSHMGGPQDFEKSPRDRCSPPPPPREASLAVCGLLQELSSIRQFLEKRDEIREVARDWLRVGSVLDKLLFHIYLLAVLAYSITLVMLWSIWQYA

| SMILES | activity at 10 µM [1] [%] | EC50 (5-HT3 receptor) [µM] | Activity (% Cells Alive) ([1]; 10 μM compound, 2 h pre-incubation, OGD 120 min, compound added back 20 h, ATP content (Cell Titter Glo)) [%] |
| --- | --- | --- | --- |
| CN1CCN(c2ccc3ccccc3n2)CC1 [Formula IV, 2-(1-(4-methyl)-piperazineyl)quinolinedimaleate] | 103 ± 30 | – | – |
| Cc1[nH]c2ccc(O)cc2c1CCN [2-methyl-5-HT, reference compound] | – | 5 to 8 | – |
| Cc1[nH]c2ccc(O)cc2c1CCN.O=C(O)/C=C\C(=O)O [Formula III, 2-methyl-5-hydroxytryptaminemaleate] | – | – | 106 ± 25 |
| N=C(N)NC(=N)Nc1cccc(Cl)c1 [Formula I, 1-(m-chlorophenyl)-biguanide] | 106 ± 6 | 0.4 | – |
| NC1CCN(c2cccc(Cl)n2)CC1 [Formula V, 1-(6-chloro-2-pyridinyl)-4-piperidinamine] | 80 ± 27 | – | – |
| N=C(N)NC(=N)Nc1ccccc1 [Formula II, N-phenyl-imidocarbonimidicdiamide] | 67 ± 25 | 22 | – |
